# Laboratory results: patent publication US8691528B2, “Cell penetrating peptide” (Mitsubishi Tanabe Pharma Corporation, priority 2005, dated 2014)
# Entries after “also recorded” stand apart in the source; their conditions may differ.
# Assays:
# Assay type in all cases: cell-based
# Jurkat cells = assay: Confocal microscopic analysis of intracellular translocation of synthetic peptides in Jurkat cells
# Description: (§1) Three kinds of cells were used for incorporating the peptides: CHO cells (ATCC NO. CCL-61), HeLa cells, and Jurkat cells. 10^4 CHO cells and HeLa cells and 10^5 Jurkat cells were separately inoculated to a 96-well plate, and cultured for 2 or 3 days. Subsequently, when the cells became confluent, each peptide solution was added to each type of cell, and the cells were incubated for 1 hour. After each type of cell was washed with PBS three times, 100 μL of 0.25% trypsin-1 mM EDTA solution was added, and trypsinization was performed at room temperature for 5 minutes. After 400 μL of PBS (10% FCS) was added to neutralize the trypsin, the cells were washed with 1 mL of HBSS (Hanks' Balanced Salt Solution/produced by Invitrogen) three times. After the washing, the cells were suspended in 50 μL of HBSS and analyzed using a confocal microscope. Measurements and analysis were performed using a confocal differential interference laser microscope system (Bio-Rad, Radience2100/Green He-Ne, 488 nm, microscope: Nikon, ECLIPSE E600).
# In Jurkat cells as well, intracellular translocation experiments of synthetic peptides of modified PTD sequences were performed by confocal microscopic analysis.
# CHO cells = assay: Test of translocation of fluorescence-labeled peptides into CHO cells (FACS and confocal microscopic analysis); settings: for contribution of the alanine-substituted amino acid to the intracellular translocation: comprehensive alanine substitution on the basis of KSH1-1
# Description: Each peptide solution, adjusted to 1 mM, was diluted with a medium to three levels, 100 μM, 50 μM, and 25 μM, and added to cells. Three kinds of cells were used: CHO cells, HeLa cells, and Jurkat cells. After each peptide solution was added, the cells were incubated for 1 hour. After the cells were washed with PBS three times, 100 μL of 0.25% trypsin-1 mM EDTA solution was added, and trypsinization was performed at room temperature for 5 minutes. After 400 μL of PBS (10% FCS) was added to stop the trypsinization, the cells were washed with 1 mL of HBSS three times. After the washing, the cells were suspended in 500 μL of PBS (10% FCS) and subjected to flowcytometry (hereinafter, FACS) analysis using FACS Calibur (Becton Dickinson).
# Each peptide was synthesized, fluorescently labeled, purified and dissolved in the same manner as Example 1-2, a test of translocation into CHO cells was performed, and an evaluation was performed by confocal microscopic analysis and FACS. FACS analysis was performed in the same manner as Example 1-3. For the KSH1 peptide and modified PTD sequences, i.e., KSH1-1 to KSH1-9 peptides (SEQ ID NOS:1 to 9 in the sequence listing), fluorescence intensities determined by FACS analysis are shown in FIG. 6. The peptide addition concentrations were 50 μM, 25 μM, 12.5 μM and 6.5 μM.
# To determine which amino acids are important to the intracellular translocation, comprehensive alanine substitution was performed on the basis of KSH1-1 to design KSH1-11 (SEQ ID NO:11 in the sequence listing) to KSH1-23 (SEQ ID NO:22 in the sequence listing) and KSH1-35 (SEQ ID NO:32 in the sequence listing) (FIG. 7). Each peptide was synthesized, fluorescently labeled, purified and dissolved in the same manner as Example 1-2, a test of translocation into CHO cells was performed, and an evaluation was performed by confocal microscopic analysis and FACS. FACS analysis was performed in the same manner as Example 1-3. For KSH1 and modified PTD sequences, i.e., KSH11-11 to 23 and KSH1-35, fluorescence intensities determined by FACS analysis are shown in FIG. 8. The peptide addition concentrations were 50 μM, 25 μM, 12.5 μM and 6.5 μM.
# (§2) Each peptide was synthesized, fluorescently labeled, purified and dissolved in the same manner as Example 1-2, a test of translocation into CHO cells was performed, and an evaluation was performed by confocal microscopic analysis and FACS analysis. FACS analysis was performed in the same manner as Example 1-3. For KSH1 and modified PTD sequences, i.e., KSH11-24 to 1-26 and KSH1-28 to 1-30, fluorescence intensities determined by FACS analysis are shown in FIG. 10. The peptide addition concentrations were 50 μM, 25 μM, 12.5 μM and 6.5 μM.
# as §2, with “KSH1-27, KSH1-33, KSH1-34” for “KSH11-24 to 1-26”, “KSH1-36,” for “KSH1-28 to 1-30,”, “12.” for “10.”
# Each peptide was synthesized, fluorescently labeled, purified and dissolved in the same manner as Example 1-2, and an intracellular translocation test in CHO cells was performed by FACS analysis. Used for positive control were a PTD sequence derived from HIV TAT ([…] in the sequence listing) and the KSH1 peptide; used for negative control was a peptide sequence lacking intracellular transferability (SEQ ID NO:57 in the sequence listing).
# HeLa cells = assay: Confocal microscopic analysis of intracellular translocation of synthetic peptides in HeLa cells; settings: confocal microscopic analysis
# Description: as §1
# In HeLa cells as with CHO cells, intracellular translocation experiments of synthetic peptides of modified PTD sequences were performed by confocal microscopic analysis.
# [1] = tested on: CHO cells, HeLa cells, and Jurkat cells; assay: Confocal microscopic analysis of intracellular translocation of fluorescence-labeled peptides; settings: for intracellular translocation compared with KSH2: FITC-labeled peptide; for capability of intracellular translocation compared with KSH2: FITC-labeled peptides in CHO, HeLa, and Jurkat cells
# Source text: With the PTD derived from HIV TAT protein shown by SEQ ID NO:50 in the sequence listing as the positive control (in FIG. 1 to FIG. 3, denoted by “Positive” or “TAT”), and a mutant of the TAT-derived PTD shown by SEQ ID NO:51 in the sequence listing, reported by Ulo Langel et al. (Cell-Penetrating Peptides: Processes and Applications, Series: Pharmacology and Toxicology: Basic and Clinical Aspects Volume:3, 2002), as the negative control (in FIG. 1, denoted by “Negative”), the peptides of the 11 sequences selected in Example 1-1 were evaluated.
# The peptides of the 11 sequences selected in Example 1-1 were synthesized by the solid phase method, and fluorescently labeled by coupling 5,6-Carboxyfluorescein to the N-terminus of each peptide. Furthermore, the peptides were purified by HPLC to obtain a purity of 70% or more. Subsequently, each fluorescently labeled peptide was dissolved in 10% Dimethyl Sulfoxide (DMSO) to obtain 1 mM (hereinafter referred to as peptide solution).
# as §1
# Of the novel PTD sequences found in Example 5, the KSH2 peptide is highly capable of translocating eGFP into cells; an attempt was made to modify the KSH2 peptide. The KSH2-1 to KSH2-4 peptides (SEQ ID NOS:44 to 47 in the sequence listing) were synthesized, fluorescently labeled, purified and dissolved in the same manner as Example 1-2, a test of translocation into CHO cells was performed, and confocal microscopic analysis was performed.
# First, two cases were examined: two cysteines were substituted with alanine (KSH2-1) or with tryptophan (KSH2-2). FITC-labeled peptides were synthesized, and their intracellular translocation efficiencies were examined using CHO, HeLa, and Jurkat cells (FIG. 21, the peptide addition concentration was 50 μM, 25 μM or 12.5 μM).
# [2] = 50 μM, 25 μM, 12.5 μM and 6.5 μM
substance,measurement,setting,value
KSH1-9: modified KSH1 with the number of tryptophans increased to 4 (RLWMRWYSPWTRRWG; Designed peptide to act as PTD(Protein Transduction Domain)),intracellular translocation in Jurkat cells as compared to that of SEQ ID NO:37,Jurkat cells,better intracellular translocation
same,intracellular translocation compared with KSH1 (in words),CHO cells; [2],the same tendency as KSH1-8; also recorded: clearly accentuated intracellular translocation
same,intracellular translocation in HeLa cells (modified peptides with better translocation),HeLa cells,better intracellular translocation
KSH1-18: alanine substitution form of KSH1-1 (8th serine) (RLWMRWYAPTTRRYG; Designed peptide to act as PTD(Protein Transduction Domain)),intracellular translocation in Jurkat cells as compared to that of SEQ ID NO:37,Jurkat cells,better intracellular translocation
same,intracellular translocation compared with KSH1 (in words),CHO cells; [2],clearly accentuated intracellular translocation
same,intracellular translocation in HeLa cells (modified peptides with better translocation),HeLa cells,better intracellular translocation
KSH2-1: KSH2 with two cysteines substituted with alanine (WKARRQAFRVLHHWN; Designed peptide to act as PTD(Protein Transduction Domain)),intracellular translocation compared with KSH2,[1]; 25 μM,remarkably decreased intracellular translocation
same,intracellular translocation compared with KSH2,[1]; 50 μM,higher intracellular translocation than KSH2
KSH2-3: KSH2 with one of the two cysteines substituted with alanine (WKARRQCFRVLHHWN; Designed peptide to act as PTD(Protein Transduction Domain)),capability of intracellular translocation compared with KSH2,[1],accentuated
KSH1-14: alanine substitution form of KSH1-1 (RLWARWYSPTTRRYG; Designed peptide to act as PTD(Protein Transduction Domain)),intracellular translocation in Jurkat cells as compared to that of SEQ ID NO:37,Jurkat cells,better intracellular translocation
same,contribution of the alanine-substituted amino acid to the intracellular translocation,CHO cells,minor contribution
KSH1-12: alanine substitution form of KSH1-1 (RAWMRWYSPTTRRYG; Designed peptide to act as PTD(Protein Transduction Domain)),intracellular translocation in Jurkat cells as compared to that of SEQ ID NO:37,Jurkat cells,better intracellular translocation
same,contribution of the alanine-substituted amino acid to the intracellular translocation,CHO cells,minor contribution
KSH1-36: the reversed-chain peptide of KSH1 (GYRRTTPSYWRMWLR; Designed peptide to act as PTD(Protein Transduction Domain)),intracellular translocation compared with KSH1 (in words),CHO cells; at high concentrations,accentuated intracellular translocation
same,intracellular translocation compared with KSH1 (in words),CHO cells; at low concentrations,tended to decrease
KSH1-26: two tryptophans substituted with isoleucine (RLIMRIYSPTTRRYG; Designed peptide to act as PTD(Protein Transduction Domain)),intracellular translocation compared with KSH1-1 (in words),CHO cells; [2],nearly the same as KSH1-1
KSH2-4: KSH2 with one of the two cysteines substituted with alanine (WKCRRQAFRVLHHWN; Designed peptide to act as PTD(Protein Transduction Domain)),capability of intracellular translocation compared with KSH2,[1],accentuated
KSH1-24: two tryptophans substituted with leucine (RLLMRLYSPTTRRYG; Designed peptide to act as PTD(Protein Transduction Domain)),intracellular translocation compared with KSH1-1 (in words),CHO cells; [2],decreased
KSH1-16: alanine substitution form of KSH1-1 (RLWMRAYSPTTRRYG; Designed peptide to act as PTD(Protein Transduction Domain)),intracellular translocation in HeLa cells compared with CHO cells,HeLa cells,slightly higher
KSH1-25: two tryptophans substituted with phenylalanine (RLFMRFYSPTTRRYG; Designed peptide to act as PTD(Protein Transduction Domain)),intracellular translocation compared with KSH1-1 (in words),CHO cells; [2],nearly the same as KSH1-1
KSH1-21: alanine substitution form of KSH1-1 (RLWMRWYSPTARRYG; Designed peptide to act as PTD(Protein Transduction Domain)),intracellular translocation in Jurkat cells as compared to that of SEQ ID NO:37,Jurkat cells,better intracellular translocation
KSH2-2: KSH2 with two cysteines substituted with tryptophan (WKWRRQWFRVLHHWN; Designed peptide to act as PTD(Protein Transduction Domain)),intracellular translocation compared with KSH2,[1]; 12.5 μM,higher intracellular translocation efficiency than KSH2
same,intracellular translocation compared with KSH2,[1]; 25 μM,higher intracellular translocation efficiency than KSH2
same,intracellular translocation compared with KSH2,[1]; 50 μM,higher intracellular translocation than KSH2
KSH1-29: two tryptophans substituted with valine (RLVMRVYSPTTRRYG; Designed peptide to act as PTD(Protein Transduction Domain)),intracellular translocation compared with KSH1-1 (in words),CHO cells; [2],decreased slightly
KSH1-6: KSH1 with the two tryptophans both substituted with alanine (KLAMRAYSPTTRRYG; Designed peptide to act as PTD(Protein Transduction Domain)),intracellular translocation compared with KSH1 (in words),CHO cells; [2],no longer observable at all
